Test results reported in PMC2957295 (Biochemistry, 2010).

Target: T1, Fas (Homo sapiens, UniProt P25445)
T1 sequence (P25445 26-335): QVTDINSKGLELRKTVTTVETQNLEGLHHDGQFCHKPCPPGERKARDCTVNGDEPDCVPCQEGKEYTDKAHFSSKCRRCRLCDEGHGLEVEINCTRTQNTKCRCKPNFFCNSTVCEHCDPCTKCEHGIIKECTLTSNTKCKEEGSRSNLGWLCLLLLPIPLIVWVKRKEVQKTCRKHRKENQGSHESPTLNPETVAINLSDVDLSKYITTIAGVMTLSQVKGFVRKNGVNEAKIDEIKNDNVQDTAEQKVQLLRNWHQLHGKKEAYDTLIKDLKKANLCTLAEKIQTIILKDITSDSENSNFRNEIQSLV
Experiment: anti-Fas immunoprecipitation of treated cells, Western blot for 4-HNE adduct
Assay type: cell-based
Details: covalent; HepG2 cells, 20 µM 4-HNE, 2 h

Structure (SMILES): CCCCCC(O)/C=C/C=O (stereo not shown) [4-hydroxy-2-nonenal]
- 4-HNE-Fas adduct: shows the presence of Daxx and 4-HNE-Fas adduct
